Laboratory results taken from US20130131089A1, “DOSAGE FORMS OF ELINOGREL AND METHODS OF INJECTABLE ADMINISTRATION THEREOF” (Portola Phamaceuticals Inc., priority 2010, published 2013).
In brackets after ≈: the same amount, converted by molar mass. Where two headings read alike, the source gives them in different places.

Tests used:
[1] = Kinetic solubility in liquid formulation containing mannitol and glycine buffer; assay type: physicochemical; settings: 4% mannitol; for Solubility (kinetic): 50 mM glycine sodium; for solubility kinetic at 1 day / solubility kinetic at 2 day / solubility kinetic at 3 day / solubility kinetic at 4 day / solubility kinetic at 5 day: IV vehicle: 50 mM glycine sodium, thermodynamic from solid; for solubility kinetic at 5 day: pH 8.8, Day 5
Experimental: Three solid state forms of Elinogrel were tested: i.e., Form B (mono potassium hemi hydrate), Form C (hemi potassium trihydrate), and the Free Acid form. Excess Elinogrel (i.e., ˜10 mg/ml when fully dissolved) was equilibrated with the IV vehicle composed of 50 mM glycine sodium and 4% mannitol at RT or refrigerated. The pH was monitored and adjusted to the target range using NaOH or HCl.

[2] = Solubility in co-solvents (propylene glycol, ethanol); assay type: physicochemical; settings: propylene glycol/ethanol co-solvent mixture, aqueous with cosolvent or surfactant or cyclodextrin, thermodynamic from solid, 10% EtOH, no pH adjustment, 25° C.
Experimental: Excess Elinogrel potassium solids were added into ½ mL of 25% or 75% propylene glycol with 10% ethanol and the suspensions were equilibrated for 12 days at ambient temperature. Solubilities were determined by analyzing concentration of supernatants via HPLC.

[3] = Solubility in sodium sulfobutyl ether β-cyclodextrin solutions over time; assay type: physicochemical
Experimental: A set of samples in 0, 10, 20, and 40% sodium sulfobutyl ether β-cyclodextrin with no pH adjustment were equilibrated for 12 days and concentrations of supernatants at 1, 3, 6, and 12 days were determined.
The solubility results of Elinogrel potassium at various sodium sulfobutyl ether β-cyclodextrin concentrations as a function of time (without pH adjustment) are shown in Table 4. […] There is a continued decrease of solubility overtime, before it approaching plateau at each SBE-β-CD level.

[4] = pH 9.3
Experimental: (§1) The white to off-white wet solids were collected by centrifugation at 13,000 rpm for 5 min and supernatant removal.

physchem = settings: thermodynamic from solid, S (solubility)
Experimental: as §1

[5] = pKa, logP and logD of Elinogrel; assay type: physicochemical
[6] = Aqueous solubility of the free acid form; assay type: physicochemical; settings: aqueous medium, aqueous buffer; pH 1.0-7.4
[7] = Thermodynamic solubility at different pH at 37° C.; assay type: physicochemical; settings: aqueous slurry, thermodynamic from solid
Experimental: The thermodynamic solubility of Elinogrel potassium salt and free acid in pH range of 1-10 at 37° C. was also determined. Excess Elinogrel free acid or potassium salt (start from Form B) was equilibrated with its aqueous slurries at various pH under constant agitation. Different amounts of NaOH or HCl solution were used to adjust pH. Solubility was determined after 3 days by analyzing the elinogrel concentration in supernatant of the slurry after ultracentrifugation.

[8] = system: Male New Zealand White rabbits; experiment: Rabbit vein and tissue irritation study; assay type: in vivo; settings: 4% mannitol, perivascular and subcutaneous, 5 days
Experimental: Male New Zealand White rabbits were utilized in this study. Rabbits received 3 injections:
Intravenous (IV): 1.0 mL in left marginal ear vein;
Perivascular: 0.5 mL near the right marginal ear vein; and
Subcutaneous (SC): 1.0 mL in the scapular region of the dorsal back.
There were four rabbits per each of the following dose groups.
Normal Saline: 0.9% sodium chloride
Vehicle: 10 mM sodium glycine, 4% mannitol, pH 9.31
Elinogrel (Na salt) at 16.7 mg/mL in 10 mM glycine, 4% mannitol, pH 9.33
Elinogrel (K salt) at 4.0 mg/mL in 50 mM glycine, 4% mannitol, pH 9.38
On day 5, tissues (ears and skin) were harvested and processed for histological examination of the injection site.

For `CNc1cc2[nH]c(=O)n(-c3ccc(NC(=O)NS(=O)(=O)c4ccc(Cl)s4)cc3)c(=O)c2cc1F` [Elinogrel potassium (Form B)], the “Solubility (kinetic)” value ([1]; RT, pH 8.8, Day 1, listed as Elinogrel K salt-Form B, potassium salt) was 5930 µg/mL, the “Solubility (kinetic)” value ([1]; RT, pH 8.8, Day 2, listed as Elinogrel K salt-Form B, potassium salt) was 5200 µg/mL and the “Solubility (kinetic)” value ([1]; RT, pH 8.8, Day 3, listed as Elinogrel K salt-Form B, potassium salt) was 1750 µg/mL. For the same compound, the “Solubility (kinetic)” value ([1]; RT, pH 8.8, Day 4, listed as Elinogrel K salt-Form B, potassium salt) was 2080 µg/mL, the “Solubility (kinetic)” value ([1]; RT, pH 8.8, Day 5, listed as Elinogrel K salt-Form B, potassium salt) was 1370 µg/mL and the “Solubility (kinetic)” value ([1]; RT, pH 9, Day 1, listed as Elinogrel K salt-Form B, potassium salt) was 5890 µg/mL. The “Solubility (kinetic)” value ([1]; RT, pH 9, Day 2, listed as Elinogrel K salt-Form B, potassium salt) was 3560 µg/mL, the “Solubility (kinetic)” value ([1]; RT, pH 9, Day 3, listed as Elinogrel K salt-Form B, potassium salt) was 1780 µg/mL and the “Solubility (kinetic)” value ([1]; RT, pH 9, Day 4, listed as Elinogrel K salt-Form B, potassium salt) was 1950 µg/mL. The “Solubility (kinetic)” value ([1]; RT, pH 9, Day 5, listed as Elinogrel K salt-Form B, potassium salt) was 1290 µg/mL, the solubility kinetic at 1 day ([1]; 5 °C, pH 8.8, aqueous buffer, 5° C., pH 8.8, Day 1) was 5480 µg/mL and the solubility kinetic at 2 day ([1]; 5 °C, pH 8.8, aqueous buffer, 5° C., pH 8.8, Day 2) was 4020 µg/mL. The solubility kinetic at 3 day ([1]; 5 °C, pH 8.8, aqueous buffer, 5° C., pH 8.8, Day 3) was 1580 µg/mL, the solubility kinetic at 4 day ([1]; 5 °C, pH 8.8, aqueous buffer, 5° C., pH 8.8, Day 4) was 1580 µg/mL and the solubility kinetic at 5 day ([1]; 5 °C, pH 8.8, aqueous buffer, 5° C.) was 1110 µg/mL. For the same compound, the solubility at 12 d ([2]; 25% PG, pH 7.0, read-out: S (solubility)) was 8000 µg/mL and the solubility at 12 d ([2]; 75% PG, pH 7.3, read-out: S (solubility)) was 21000 µg/mL.
With `CNc1cc2[nH]c(=O)n(-c3ccc(NC(=O)NS(=O)(=O)c4ccc(Cl)s4)cc3)c(=O)c2cc1F` [Elinogrel potassium (Form C)] the “Solubility (kinetic)” value ([1]; RT, pH 8.8, Day 1, listed as Elinogrel K-Form C, potassium salt) was 2360 µg/mL, the “Solubility (kinetic)” value ([1]; RT, pH 8.8, Day 2, listed as Elinogrel K-Form C, potassium salt) was 1920 µg/mL and the solubility kinetic at 3 day ([1]; pH 8.8, aqueous buffer, RT, pH 8.8, Day 3) was 1790 µg/mL. The solubility kinetic at 4 day ([1]; pH 8.8, aqueous buffer, RT, pH 8.8, Day 4) was 2150 µg/mL, the solubility kinetic at 5 day ([1]; pH 8.8, aqueous buffer, RT) was 1450 µg/mL and the “solubility in 20% sodium sulfobutyl ether β-cyclodextrin relative to that in water” value ([3]; 20% sodium sulfobutyl ether β-cyclodextrin vs water) was “approximately 4 fold”. It also gave an Elinogrel potassium conc. ([3]; 20% sodium sulfobutyl ether β-cyclodextrin, 12 d, no pH adjustment (pH~7), potassium salt) of 11.5 mg/mL.
With `CNc1cc2[nH]c(=O)n(-c3ccc(NC(=O)NS(=O)(=O)c4ccc(Cl)s4)cc3)c(=O)c2cc1F` [Elinogrel sodium hydrate] the “S (solubility)” value [4] was 17000 µg/mL, the solubility (physchem; 4 °C, water) was 13000 µg/mL and the solubility (physchem; pH 9.2, water) was 23000 µg/mL. For the same compound, the solubility (physchem; pH 9.3, aqueous buffer) was 16000 µg/mL.
In the case of `CNc1cc2[nH]c(=O)n(-c3ccc(NC(=O)NS(=O)(=O)c4ccc(Cl)s4)cc3)c(=O)c2cc1F` [Elinogrel, [4-(6-Fluoro-7-methylamino-2,4-dioxo-1,4-dihydro-2H-quinazolin-3-yl)-phenyl]-5-chloro-thiophen-2-yl-sulfonylurea], the logP [5] is reported as “about 2.5”, the pKa [5] is reported as roughly 3.3 and the logD ([5]; pH 7.4) is reported as “about −1.6”. For the same compound, the solubility [6] was less than 100 µg/mL, the “Solubility (kinetic)” value ([1]; RT, pH 9, Day 5, listed as Elinogrel free acid-Form B) was 4050 µg/mL (≈ 7730 µM) and the solubility kinetic at 1 day ([1]; pH 9, aqueous buffer, RT, pH 9, Day 1) was 3140 µg/mL (≈ 5990 µM). For the same compound, the solubility kinetic at 2 day ([1]; pH 9, aqueous buffer, RT, pH 9, Day 2) was 3230 µg/mL (≈ 6160 µM), the solubility kinetic at 3 day ([1]; pH 9, aqueous buffer, RT, pH 9, Day 3) was 3330 µg/mL (≈ 6360 µM) and the solubility kinetic at 4 day ([1]; pH 9, aqueous buffer, RT, pH 9, Day 4) was 2650 µg/mL (≈ 5060 µM). The solubility thermodynamic at 3 days ([7]; aqueous buffer, pH 3.00) was 0.057 µg/mL (≈ 0.109 µM), the solubility thermodynamic at 3 days ([7]; aqueous buffer, pH 8.11) was 418 µg/mL (≈ 799 µM) and the solubility thermodynamic at 3 days ([7]; pH 1.1, simulated gastric fluid, pH 1.10) was 0.03 µg/mL (≈ 0.0573 µM). For the same compound, the solubility thermodynamic at 3 days ([7]; pH adjusted with NaOH or HCl, aqueous buffer, pH 5.97) was 0.544 µg/mL (≈ 1.04 µM), the solubility thermodynamic at 3 days ([7]; pH adjusted with NaOH or HCl, aqueous buffer, pH 6.61) was 2.17 µg/mL (≈ 4.14 µM) and the solubility thermodynamic at 3 days ([7]; pH adjusted with NaOH or HCl, aqueous buffer, pH 7.22) was 46.6 µg/mL (≈ 88.9 µM). For the same compound, the solubility thermodynamic at 3 days ([7]; pH adjusted with NaOH or HCl, pH 4.2, aqueous buffer, pH 4.20) was 0.022 µg/mL (≈ 0.042 µM), the solubility thermodynamic at 3 days ([7]; simulated gastric fluid, pH 1.88) was 0.002 µg/mL (≈ 0.00382 µM) and the tolerability of injection ([8]; K salt at 4.0 mg/mL in 50 mM glycine, pH 9.38, intravenous) was “well tolerated”. For the same compound, the tolerability of injection ([8]; Na salt at 16.7 mg/mL in 10 mM glycine, pH 9.33, intravenous) was “well tolerated”.
